#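 1) Cells in 96-well plates. 2) Compound, 48 h, 5 concentrations. 3) Linear interpolation between surrounding doses. 4) Unreached endpoint = highest concentration. GI50 = concentration required for 50% inhibition of growth. TGI is the concentration that stops growth completely.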
# What was measured:
# Assay in all cases: NCI-60 cell line screen, 48 h
# [1] = system: EKVX NSCLC
# [2] = system: TK-10 renal
# [3] = system: NCI-H522 lung
# [4] = system: RXF 393 renal
# [5] = system: HOP-62 NSCLC
# [6] = system: IGROV1 ovarian
# [7] = system: SF-295 CNS
# [8] = system: ACHN renal
# [9] = system: RPMI-8226 leukemia
# [10] = system: SNB-75 CNS
# [11] = system: HCT-15 colon
# [12] = system: SF-268 CNS
# [13] = system: SK-MEL-28 melanoma
# [14] = system: SK-MEL-2 melanoma
# [15] = system: OVCAR-5 ovarian
# [16] = system: T-47D breast
Compound,TGI [1],TGI [2],TGI [3],TGI [4],TGI [5],TGI [6],TGI [7],TGI [8],TGI [9],TGI [10],TGI [11],TGI [12],TGI [13],TGI [14],TGI [15],TGI [16],GI50 [4],GI50 [7],GI50 [12]
CCn1cnc2c(=S)nc(N)[nH]c21,> 100 µM,> 100 µM,> 100 µM,> 100 µM,> 100 µM,> 100 µM,> 100 µM,> 100 µM,> 100 µM,> 100 µM,> 100 µM,> 100 µM,> 100 µM,–,–,–,–,–,–
CCNC(=O)c1ccc(C)c(N=NN(C)C)c1,> 100 µM,> 100 µM,> 100 µM,–,> 100 µM,> 100 µM,> 100 µM,> 100 µM,–,–,> 100 µM,> 100 µM,> 100 µM,> 100 µM,–,–,–,–,–
CCCC/C=C/C=C/C=C/CCCCCCCC(=O)OCC(COC(=O)CCCCCCC/C=C/C1C=CC(CCCC)C(C(=O)O)C1C(=O)O)OC(=O)CCCCCCC/C=C/C=C/C=C/CCCC (stereo not drawn) (tested in a mixture with another compound),43.4 µM,37.7 µM,–,–,38.6 µM,37.8 µM,35.8 µM,33.2 µM,15 µM,36.7 µM,30.8 µM,36.1 µM,33.3 µM,29.5 µM,43.1 µM,–,–,–,–
COCCOCOC(CCCCO)c1cc(C)c(O[Si](C)(C)C(C)(C)C)c(C)c1 (stereo not drawn),22.6 µM,27.3 µM,6 µM,10.5 µM,23 µM,26.7 µM,16.3 µM,21.6 µM,11.6 µM,23.9 µM,21.1 µM,20.4 µM,25.2 µM,21.9 µM,26.7 µM,–,–,–,–
CC(C)C(NC(=O)Oc1ccccc1)C(=O)NC1c2c(Br)sc(Br)c2C(=O)C1O (stereo not drawn),15.2 µM,> 25 µM,–,7.25 µM,–,8.11 µM,> 25 µM,10.2 µM,–,> 25 µM,8.39 µM,14.1 µM,8.67 µM,17.7 µM,15.4 µM,16.7 µM,–,–,–
CC1(C)[C@@H](Cn2cc(I)c(=O)[nH]c2=O)CC[C@@]1(C)CO,> 100 µM,> 100 µM,–,> 100 µM,> 100 µM,–,> 100 µM,> 100 µM,–,> 100 µM,> 100 µM,> 100 µM,> 100 µM,> 100 µM,> 100 µM,> 100 µM,–,–,–
O=C(Nc1c(O)[nH]c(=S)[nH]c1=O)c1ccccc1,–,> 100 µM,> 100 µM,–,> 100 µM,> 100 µM,> 100 µM,> 100 µM,> 100 µM,> 100 µM,> 100 µM,> 100 µM,> 100 µM,> 100 µM,> 100 µM,–,–,–,–
O=c1cc(-c2ccc3c(c2)OCO3)[nH]c2cc3c(cc12)OCO3,> 100 µM,> 100 µM,> 100 µM,66.5 µM,63 µM,> 100 µM,87.8 µM,> 100 µM,> 100 µM,13.7 µM,> 100 µM,> 100 µM,> 100 µM,> 100 µM,–,–,20.8 µM,29.6 µM,46.8 µM
COc1cc(C2C(Cl)C(=O)N2n2cnc3ccccc3c2=O)ccc1O (stereo not drawn),> 100 µM,> 100 µM,> 100 µM,> 100 µM,> 100 µM,> 100 µM,> 100 µM,> 100 µM,> 100 µM,> 100 µM,> 100 µM,> 100 µM,> 100 µM,> 100 µM,> 100 µM,–,–,–,–
CCOC(=O)c1nnn(CCCCO)c1C(=O)OCC,> 100 µM,> 100 µM,–,> 100 µM,> 100 µM,> 100 µM,> 100 µM,–,–,> 100 µM,> 100 µM,> 100 µM,> 100 µM,> 100 µM,–,> 100 µM,–,–,–
COC(=O)c1ccc(Cc2cc(Cc3ccc(C(=O)OC)cc3)cc(Cc3ccc(C(=O)OC)cc3)c2)cc1,> 25 µM,> 25 µM,> 25 µM,–,> 25 µM,> 25 µM,> 25 µM,> 25 µM,> 25 µM,> 25 µM,> 25 µM,> 25 µM,> 25 µM,> 25 µM,> 25 µM,–,–,–,–
CC1NC(=O)C(C)C(c2ccccc2)N(N=O)C1c1ccccc1 (stereo not drawn),> 100 µM,–,> 100 µM,> 100 µM,> 100 µM,> 100 µM,> 100 µM,–,> 100 µM,> 79.3 µM,> 100 µM,> 100 µM,> 100 µM,> 100 µM,> 100 µM,–,–,–,–
Cc1ccc(Nc2nc(NNC(=O)Cc3ccccc3)nc(NNC(=O)c3ccncc3)n2)cc1,> 10 µM,> 10 µM,–,–,> 10 µM,> 10 µM,–,–,> 10 µM,> 10 µM,> 10 µM,> 10 µM,> 10 µM,–,–,> 10 µM,–,–,–
C/C(=N\NC(N)=S)c1ccc2c(c1)Sc1ccccc1O2,13.6 µM,30.7 µM,–,–,29 µM,–,> 100 µM,43.7 µM,16.4 µM,7.21 µM,4.63 µM,8.36 µM,69.9 µM,6.99 µM,> 100 µM,> 100 µM,–,–,–
CCOC(=O)c1cc(-c2ccc(OC)cc2)c([N+](=O)[O-])n1C,> 10 µM,–,> 10 µM,4.81 µM,–,> 10 µM,> 10 µM,> 10 µM,–,> 10 µM,> 10 µM,> 10 µM,–,> 10 µM,> 10 µM,–,–,–,–
C/C(CN1C(=O)c2ccccc2C1=O)=N\NS(=O)(=O)c1ccc(Cl)cc1,> 100 µM,> 100 µM,> 100 µM,–,> 100 µM,> 100 µM,> 100 µM,> 100 µM,> 100 µM,> 100 µM,> 100 µM,–,–,> 100 µM,> 100 µM,–,–,–,–

# Source: PubChem BioAssay (NCI)
